The numbers were not newly measured in patent US20070060740A1, “Protein crystal” (priority 2002, published 2007), which cites them from elsewhere.

Structures are written as SMILES.

The series deals with LXR. As to conditions: non-steroidal synthetic LXR ligands, background statement; read-out: binding IC50.
In the case of `CCCc1c(OCCCSc2ccc(CC(=O)O)cc2Cl)ccc2c(C(F)(F)F)noc12` [F3MethylAA], the 50% inhibitory concentration (IC50) – broadly, the point on the concentration scale where inhibition reaches its midpoint – is […]. With `O=C(O)Cc1cccc(OCCCN(Cc2cccc(C(F)(F)F)c2Cl)CC(c2ccccc2)c2ccccc2)c1` [GW3965, 3-(3-(2-chloro-3-trifluoromethylbenzyl-2,2-diphenylethylamino)propoxy)phenylacetic acid], the IC50 was about 0.01 µM. As to `O=S(=O)(c1ccccc1)N(CC(F)(F)F)c1ccc(C(O)(C(F)(F)F)C(F)(F)F)cc1` [T0901317, N-(2,2,2-trifluoroethyl)-N-[4-[2,2,2-trifluoro-1-hydroxy-1-(trifluoromethyl)ethyl]phenyl]-benzenesulfonamide], the IC50 was […].
